Assays:
Conditions in all cases: 48 h
CU-ACC1 [1] = assay: AC50 viability; higher = less potent
Method in brief: (§1)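 Three adrenocortical carcinoma cell lines were plated in 1,536-well plates at 500–1,000 cells/well in 5 µL medium, and 23 nL of each library compound was added at 11 concentrations. After 48 h, CellTiter-Glo was applied for 15 minutes at room temperature before luminescence was read. Each plate's signals were normalised to vehicle and empty-well controls. AC50 and area under the curve were taken from fitted concentration-response curves, with only inhibitory or non-responding curve classes retained.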

CU-ACC2 [2] = assay: AC50 viability; higher = less potent
Method in brief: as §1

NCI-H295R [3] = assay: AC50 viability; higher = less potent
Method in brief: as §1

CU-ACC1 [4] = assay: area under concentration-response curve (viability) (AUC (a.u.)); higher = less active
Method in brief: as §1

CU-ACC2 [5] = assay: as above
Method in brief: as §1

NCI-H295R [6] = assay: as above
Method in brief: as §1

Row | SMILES | AC50 viability (CU-ACC1 [1]) | AC50 viability (CU-ACC2 [2]) | AC50 viability (NCI-H295R [3]) | area under concentration-response curve (CU-ACC1 [4]) | area under concentration-response curve (CU-ACC2 [5]) | area under concentration-response curve (NCI-H295R [6])
1 | COc1cccc2c1C(=O)c1c(O)c3c(c(O)c1C2=O)C[C@@](O)(C(C)=O)C[C@@H]3O[C@H]1C[C@H](N)[C@H](O)[C@H](C)O1 | 2.95 µM | 2.35 µM | 4.68 µM | 305 | 350 | 369
2 | c1cc(-c2cnn3cc(-c4ccc(OCCN5CCCCC5)cc4)cnc23)ccn1 | 11.8 µM | 9.34 µM | 10.5 µM | 404 | 456 | 450
3 | Cc1cc(CN2CCN(c3c(Br)cnc4[nH]c(-c5ccc(N6CCN(C)CC6)cc5)nc34)CC2)no1 | 0.934 µM | 20.9 µM | 26.3 µM | 459 | 478 | 425
4 | CC(=O)[C@]1(O)Cc2c(O)c3c(c(O)c2[C@@H](O[C@H]2C[C@H](N)[C@H](O)[C@H](C)O2)C1)C(=O)c1ccccc1C3=O | 20.9 µM | 20.9 µM | 14.8 µM | 428 | 485 | 377
5 | CC(C)(O)CC(=O)NCCn1ccc2ncnc(Nc3ccc(Oc4cccc(C(F)(F)F)c4)c(Cl)c3)c21 | 20.9 µM | 23.5 µM | 20.9 µM | 465 | 472 | 443
6 | CC1(C)CC\C2=C(/O1)C3=C(C=CC=C3)C(=O)C2=O | 6.61 µM | 16.6 µM | 33.2 µM | 333 | 515 | 535
7 | C[C@@H]1CC[C@@]2(OC1)O[C@H]3C[C@H]4[C@@H]5C/C=C6/C[C@H](CC[C@]6(C)[C@H]5CC[C@]4(C)[C@H]3[C@@H]2C)O[C@@H]7O[C@H](CO)[C@@H](O[C@@H]8O[C@@H](C)[C@H](O)[C@@H](O)[C@H]8O)[C@H](O)[C@H]7O[C@@H]9O[C@@H](C)[C@H](O)[C@@H](O)[C@H]9O | 4.68 µM | 7.42 µM | 1.18 µM | 446 | 524 | 386
8 | C1CCC(C(CC2CCCCN2)C2CCCCC2)CC1 (centres undefined) | 8.33 µM | 11.8 µM | 9.34 µM | 398 | 460 | 414
9 | COC[C@H](NC(=O)c1cnc(C)s1)C(=O)N[C@@H](COC)C(=O)N[C@@H](Cc1ccccc1)C(=O)[C@@]1(C)CO1 | 0.166 µM | 0.0833 µM | 0.0661 µM | 220 | 255 | 276
10 | COc1ccc(N2C(=O)N(c3c(C)cccc3Cl)Cc3cnc(Nc4ccc(C5CCN(C)CC5)cc4OC)nc32)nc1 | 18.6 µM | 18.6 µM | 14.8 µM | 451 | 511 | 490
11 | CCc1ccc(OCc2ccccc2C(=O)Nc2ccc3nc(C)cc(N)c3c2)cc1 | 10.5 µM | 6.61 µM | 8.33 µM | 342 | 513 | 482
12 | CC[C@H]1/C=C\C=C/C[C@@H](C)[C@H](O)[C@@](C)(O)C(=O)[C@@H](C)[C@H](O)[C@@H](C)C(=O)[C@@H](C)[C@H](O)[C@@H](C)/C=C/C(=O)O[C@@H]2[C@H](C)[C@H](CC1)O[C@]1(CC[C@H](C)[C@H](C[C@@H](C)O)O1)[C@H]2C | 0.00186 µM | 7.42 µM | 1.32 µM | 193 | 402 | 326
13 | NC[C@@](O)(c1ccc(Cl)cc1)c1ccc(-c2cn[nH]c2)cc1 | 7.42 µM | 14.8 µM | 8.33 µM | 463 | 529 | 485
14 | COc1ccc(Nc2cc(-c3cnc(N)nc3)nc(N3CCOCC3)n2)cn1 | 1.05 µM | 1.05 µM | 1.66 µM | 413 | 493 | 392
15 | CC1(N2CCC(n3c([C@@H]4CCCNC4)nc4ccccc43)CC2)CCCCCCC1 | 10.5 µM | 13.2 µM | 11.8 µM | 470 | 562 | 439
16 | Cc1nc(NC(=O)N2CCC[C@H]2C(N)=O)sc1-c1ccnc(C(C)(C)C(F)(F)F)c1 | 8.33 µM | 9.34 µM | 18.6 µM | 439 | 457 | 421
17 | O=[N+]([O-])c1ccc(Nc2ccccc2-c2ccccc2)c2nonc12 | 9.34 µM | 8.33 µM | 8.33 µM | 426 | 467 | 434
18 | NC(CO)(CO)CCc1ccc(Sc2cccc(OCc3ccccc3)c2)cc1Cl | 14.8 µM | 18.6 µM | 10.5 µM | 423 | 491 | 449
19 | Cc1nc(Nc2n[nH]c3c2CN(C(=O)N[C@H](CN(C)C)c2ccccc2)C3(C)C)c2sccc2n1 | 9.34 µM | 5.25 µM | 9.34 µM | 433 | 442 | 462
20 | COC(=O)N[C@H](C(=O)N1CCC[C@H]1c1ncc(-c2ccc(-c3ccc(-c4cnc([C@@H]5CCCN5C(=O)[C@@H](NC(=O)OC)C(C)C)[nH]4)cc3)cc2)[nH]1)C(C)C | 18.6 µM | 23.5 µM | 23.5 µM | 506 | 561 | 508
21 | Cc1ccc(C(=O)Nc2ccc(CN3CCN(C)CC3)c(C(F)(F)F)c2)cc1C#Cc1cnc2cccnn12 | 7.42 µM | 9.34 µM | 7.42 µM | 402 | 524 | 487
22 | COc1nc(OCc2cccc(-c3ccccc3)c2C)ccc1CNCCNC(C)=O | 11.8 µM | 16.6 µM | 5.9 µM | 390 | 379 | 412
23 | C[S+](=O)([O-])N1CCC(NC(=O)c2[nH]ncc2NC(=O)c2c(Cl)cccc2Cl)CC1 | 7.42 µM | 2.63 µM | 14.8 µM | 428 | 488 | 426
24 | O=C(Nc1ccnc(NC(=O)C2CC2)c1)c1c(Cl)cccc1Cl | 9.34 µM | 4.17 µM | 18.6 µM | 390 | 463 | 479

From the supplement of paper PMC10949913
